Test results as given in paper PMC9525273 (Nature Communications, 2022).
Where “and” joins values, the source holds several entries; their conditions need not be identical. Equal entries are not always repeated. Where two headings read alike, the source gives them in different places.

Key:
[1] = test system: isolated Dd2-Polδ-PfATP4^G358S P. falciparum trophozoites; experiment: [Na+]cyt measurement (SBFI), Na+ dysregulation; type: cell-based, Plasmodium falciparum; conditions: Plasmodium falciparum, DD2, Dd2-Polδ-PfATP4G358S, source data of Table 1 (nM there)
Protocol: (§1) The ratio of the fluorescence intensity recorded at 340 nm and 380 nm (with an emission wavelength of 515 nm) was converted to [Na^+]cyt using a calibration procedure that entailed suspending parasites in solutions of varying [Na^+] containing ionophores. Fluorescence measurements and calibrations were performed at 37 °C, either with individual 1 mL suspensions using a PerkinElmer LS 50B fluorescence spectrometer (for resting [Na^+]cyt measurements for which the data are shown in Supplementary Fig. 7) or in 96-well plates using a Tecan Infinite M1000 PRO plate reader with i-control (version 1.12) software (all other [Na^+]cyt measurements).

[2] = test system: extracellular T. gondii tachyzoites expressing TgATP4^G419S-HA; experiment: [Na+]cyt measurement (SBFI), Na+ dysregulation; type: cell-based, Toxoplasma gondii; set-up: Final [Na+]cyt reached: unit not given here; conditions: TgATP4G419S-HA; for IC50: Toxoplasma gondii
Protocol: as §1

[3] = test system: extracellular T. gondii tachyzoites expressing TgATP4^WT; experiment: [Na+]cyt measurement (SBFI), Na+ dysregulation; type: cell-based, Toxoplasma gondii; set-up: Final [Na+]cyt reached: unit not given here
Protocol: as §1

[4] = test system: PfATP4-mutant P. falciparum lines and their parents; conditions: cited from earlier work

N#Cc1cc(NC(=O)[C@H]2c3ccccc3C(=O)N(CC(F)(F)F)[C@@H]2c2cccnc2)ccc1F [(+)-SJ733]
IC50 ([1]; MEAN, read-out: IC50 for Na+ dysregulation, MEAN): > 10000 nM | IC50 ([1]; single experiments, read-out: IC50 for Na+ dysregulation): > 10000 nM | Final [Na+]cyt reached ([2]; [(+)-SJ733] 19.5 nM, MEAN): 11.4 | Final [Na+]cyt reached ([2]; [(+)-SJ733] 39.1 nM, MEAN): 14.1 | Final [Na+]cyt reached ([2]; [(+)-SJ733] 39.1 nM, single experiments): 15.8 and 12.1 and 14.4 | Final [Na+]cyt reached ([2]; [(+)-SJ733] 78.1 nM, MEAN): 14.7 | Final [Na+]cyt reached ([2]; [(+)-SJ733] 78.1 nM, single experiments): 18.4 and 12.6 and 13.2 | Final [Na+]cyt reached ([2]; [(+)-SJ733] 156.3 nM, MEAN): 13.7 | Final [Na+]cyt reached ([2]; [(+)-SJ733] 156.3 nM, single experiments): 14.7 and 11.2 and 15.2 | Final [Na+]cyt reached ([2]; [(+)-SJ733] 312.5 nM, MEAN): 13.9 | Final [Na+]cyt reached ([2]; [(+)-SJ733] 312.5 nM, single experiments): 15.6 and 11.4 and 14.7 | Final [Na+]cyt reached ([2]; [(+)-SJ733] 625 nM, MEAN): 13.0 | Final [Na+]cyt reached ([2]; [(+)-SJ733] 625 nM, single experiments): 14.4 and 12.2 and 12.5 | Final [Na+]cyt reached ([2]; [(+)-SJ733] 2500 nM, MEAN): 13.7 | Final [Na+]cyt reached ([2]; [(+)-SJ733] 2500 nM, single experiments): 15.4 and 12.6 and 13.0 | Final [Na+]cyt reached ([2]; [(+)-SJ733] 5000 nM, MEAN): 13.4 | Final [Na+]cyt reached ([2]; [(+)-SJ733] 5000 nM, single experiments): 14.6 and 12.4 and 13.1 | Final [Na+]cyt reached ([2]; [(+)-SJ733] 10000 nM, MEAN): 12.1 | Final [Na+]cyt reached ([2]; [(+)-SJ733] 10000 nM, single experiments): 13.0 and 11.9 and 11.5 | Final [Na+]cyt reached ([2]; [(+)-SJ733] 20000 nM, MEAN): 12.6 | Final [Na+]cyt reached ([2]; [(+)-SJ733] 20000 nM, single experiments): 13.7 and 11.8 and 12.3 | Final [Na+]cyt reached ([2]; [(+)-SJ733] 40000 nM, MEAN): 11.6 | Final [Na+]cyt reached ([2]; [(+)-SJ733] 40000 nM, single experiments): 12.7 and 10.4 and 11.7 | IC50 ([2]; 1.5 h, ~90 min exposure, 37 °C, pH 7.1, read-out: IC50 for Na+ dysregulation): > 40000 nM | IC50 ([2]; MEAN, source data of Table 1 (nM there), read-out: IC50 for Na+ dysregulation, MEAN): > 40000 nM | IC50 ([2]; single experiments, source data of Table 1 (nM there), read-out: IC50 for Na+ dysregulation): > 40000 nM | IC50 ([3]; Toxoplasma gondii, 1.5 h, pH 7.1, WT T. gondii (TgATP4WT), ~90 min exposure, 37 °C, pH 7.1, mean ± SEM, read-out: IC50 for Na+ dysregulation): 5040 ± 572 nM | IC50 ([3]; Toxoplasma gondii, WT T. gondii, MEAN, source data of Table 1 (nM there), read-out: IC50 for Na+ dysregulation, MEAN): 5040 nM | IC50 ([3]; Toxoplasma gondii, WT T. gondii, single experiments, source data of Table 1 (nM there), read-out: IC50 for Na+ dysregulation): 4900 nM | Final [Na+]cyt reached ([3]; WT T. gondii, [(+)-SJ733] 19.5 nM, MEAN): 11.8 | Final [Na+]cyt reached ([3]; WT T. gondii, [(+)-SJ733] 39.1 nM, MEAN): 11.7 | Final [Na+]cyt reached ([3]; WT T. gondii, [(+)-SJ733] 78.1 nM, MEAN): 12.4 | Final [Na+]cyt reached ([3]; WT T. gondii, [(+)-SJ733] 156.3 nM, MEAN): 13.8 | Final [Na+]cyt reached ([3]; WT T. gondii, [(+)-SJ733] 312.5 nM, MEAN): 15.1 | Final [Na+]cyt reached ([3]; WT T. gondii, [(+)-SJ733] 625 nM, MEAN): 18.3 | Final [Na+]cyt reached ([3]; WT T. gondii, [(+)-SJ733] 2500 nM, MEAN): 32.1 | Final [Na+]cyt reached ([3]; WT T. gondii, [(+)-SJ733] 2500 nM, single experiments): 21.7 and 37.9 and 34.1 and 34.6 | Final [Na+]cyt reached ([3]; WT T. gondii, [(+)-SJ733] 5000 nM, MEAN): 48.9 | Final [Na+]cyt reached ([3]; WT T. gondii, [(+)-SJ733] 5000 nM, single experiments): 41.9 and 51.4 and 51.0 | Final [Na+]cyt reached ([3]; WT T. gondii, [(+)-SJ733] 10000 nM, MEAN): 65.1 | Final [Na+]cyt reached ([3]; WT T. gondii, [(+)-SJ733] 10000 nM, single experiments): 65.8 and 64.6 and 71.3 and 58.7 | Final [Na+]cyt reached ([3]; WT T. gondii, [(+)-SJ733] 20000 nM, MEAN): 76.4 | Final [Na+]cyt reached ([3]; WT T. gondii, [(+)-SJ733] 20000 nM, single experiments): 74.3 and 76.4 and 85.9 and 69.1 | Final [Na+]cyt reached ([3]; WT T. gondii, [(+)-SJ733] 40000 nM, MEAN): 81.2 | Final [Na+]cyt reached ([3]; WT T. gondii, [(+)-SJ733] 40000 nM, single experiments): 81.0 and 95.3 and 67.2 | IC50 ([3]; WT T. gondii, single experiments, source data of Table 1 (nM there), read-out: IC50 for Na+ dysregulation): 4780 nM and 6620 nM and 3880 nM | IC50 ([4]; genetically engineered parasites bearing L350H in PfATP4): 3.5 µM | IC50 ([4]; genetically engineered parasites bearing P412T in PfATP4): 10 µM | IC50 ([4]; parental wild-type parasites): 0.075 µM
